The results in this text go back to US20220213047A1, “CARBONIC ANHYDRASE INHIBITORS FOR TREATMENT OF NEISSERIA GONORRHOEAE INFECTION” (Purdue Research Foundation, priority 2021, published 2022).

Assay [1] relates to Bifidobacterium sp. Briefly: MIC50 against pathogenic and commensal bacteria: Bifidobacterium sp. It is filed as cell-based. To be noted: Bifidobacterium sp (18 strains); normal. From the text:
(§1) We have shown that CAIs display a narrow-spectrum of activity (Table 6). We have previously shown that CAIs have potential as anti-enterococcal agents for decolonization of the gut and treating systemic vancomycin-resistant enterococci (VRE) infections without affecting commensal strains common in the human microbiome or other pathogenic bacteria. […] The extremely narrow spectrum of this class of inhibitors would be a positive for clinical use as the molecules: 1) would not have deleterious effects on normal microbiota, and 2) would have less opportunity for resistance to arise to other important pathogenic strains aside from VRE.

The subject of assay [2] is intracellular N. gonorrhoeae. Briefly: Intracellular clearance of N. gonorrhoeae in infected endocervical cells (End1/E6E7). It is filed as cell-based. Particulars: 5×MIC, 24 hours. From the text: Intracellular clearance of N. gonorrhoeae—N. gonorrhoeae is known to invade epithelial cells of the genital tract and cross the epithelial barrier into the subepithelial space^59. Previous studies have shown that N. gonorrhoeae can survive inside host cells and pass epithelial cell layers (a key step in causing disseminated infections)^60,61. Therefore, a drug candidate must also be able to kill intracellular N. gonorrhoeae in order to be an effective therapeutic. Also, we were concerned that CAIs have reduced activity in high-CO2 conditions and may not be suitable to treat intracellular infection. Thus, we examined CAIs ability to reduce the burden of intracellular N. gonorrhoeae present in infected endocervical cells^56.

Assay [3] relates to E. coli TolC mutant. Briefly: MIC50 against pathogenic and commensal bacteria: E. coli TolC mutant. It is filed as cell-based. Particulars: Escherichia coli.
Text: as §1

Assay [4] has as its system E. coli. Description: MIC50 against pathogenic and commensal bacteria: E. coli. The format is cell-based. Particulars: Escherichia coli; E. coli (8 strains); normal.
Text: as §1

The test system of assay [5] is ATCC strain 700825. Briefly: MICs against ATCC strain 700825. To be noted: Neisseria gonorrhoeae. The format is cell-based, N. gonorrhoeae. The protocol: These tests were performed in normal culture conditions with standard CO2 levels and in CO2 (5% in incubator) conditions.
For assay [6], the system named is L. gasseri. Description: MIC50 against pathogenic and commensal bacteria: L. gasseri. The format is cell-based. Particulars: Lactobacillus gasseri; L. gasseri (4 strains); normal.
Text: as §1

In assay [7] the test system is L. jensenii. Description: MIC50 against pathogenic and commensal bacteria: L. jensenii. It is filed as cell-based. Particulars: Lactobacillus jensenii; L. jensenii (3 strains); normal.
Text: as §1

Values after ≈ are worked out from the molar mass of the structure shown. Some results are limits rather than exact numbers.

The term MIC50 denotes an inhibitory concentration at the 50% level, which refers to growth in some studies and to a panel of isolates in others. As usually defined, the MIC is the smallest concentration in the dilution series that meets the test's criterion for growth inhibition. Low readings indicate a more susceptible organism, high ones a less susceptible organism.

As for `CCOc1ccc2nc(S(N)(=O)=O)sc2c1` [Ethoxzolamide], the MIC50 in assay [1], in assay [3], in assay [4], in assay [6] and in assay [7] was over 256 µg/mL in each case. The “reduction in N. gonorrhoeae inside infected endocervical cells” value in assay [2] came out at 5.8 log10. In addition, the MIC stood at 64 µg/mL (≈ 248 µM) in assay [5] (ATCC700825, In CO2) and 0.5 µg/mL (≈ 1.94 µM) in assay [5] (ATCC700825, In air).
